For experiment [1], the system named is MSSA strain ATCC 29213. Kind of experiment: MIC, broth macrodilution (CLSI). It counts as cell-based, S. aureus. As to conditions: planktonic, inoculum 10^5 cfu/mL.
Experiment [2] deals with bacteria and fungi. Kind of experiment: Antimicrobial activity, overall comparison of the substances. In kind it is cell-based.
The test system of experiment [3] is VRSA strain VT-V-18. Kind of experiment: MIC, broth macrodilution (CLSI). As to conditions: planktonic, inoculum 10^5 cfu/mL.
Method: (§1) The MICs were determined using a broth macrodilution method with cation-adjusted Mueller-Hinton broth II (Becton Dickinson) at standard inoculum (10^5 cfu/mL) following the CLSI recommendations.
The subject of experiment [4] is VRSA strain VT-E-25. Kind of experiment: MIC, broth macrodilution (CLSI). Particulars: planktonic, inoculum 10^5 cfu/mL.
Method: as §1
Experiment [5] concerns VRSA strain VT-A-199. Kind of experiment: MIC, broth macrodilution (CLSI). As to conditions: planktonic, inoculum 10^5 cfu/mL.
Method: as §1
Experiment [6] concerns biofilms of S. aureus ATCC 29213. Nature of the experiment: 24-hour action upon 24-hour biofilms in 96-well plates, CFU count. As to conditions: S. aureus ATCC 29213 biofilm.
From the text: (§2) Biofilms used in testing were produced by 24-hour cultivation in 96-well plates.
For experiment [7], the system named is biofilms of S. aureus MRSA 24/31. Described as above. As to conditions: S. aureus MRSA 24/31 biofilm.
From the text: as §2
Experiment [8] deals with biofilms of S. aureus MRSA 201/010. The experiment is described as above. Particulars: S. aureus MRSA 201/010 biofilm.
From the text: as §2
Experiment [9] deals with S. aureus MRSA 24/31. Nature of the experiment: MIC, broth microdilution or agar dilution (CLSI). It counts as cell-based, Staphylococcus aureus. A general note: In broth dilution the organism is exposed to a series of concentrations in liquid medium.
For experiment [10], the system named is S. aureus MRSA 201/010. Nature of the experiment: MIC, broth microdilution or agar dilution (CLSI). In kind it is cell-based, Staphylococcus aureus.
Experiment [11] has as its system Candida albicans ATCC 10231. Kind of experiment: MIC, broth microdilution or agar dilution (CLSI). In kind it is cell-based. Particulars: C. albicans ATCC 10231.
The subject of experiment [12] is Aspergillus fumigatus ATCC 204305. Kind of experiment: MIC, broth microdilution or agar dilution (CLSI). Particulars: A. fumigatus ATCC 204305. In kind it is cell-based.

As to `O=C1NC(=O)C(=Cc2cc(Br)cc(Br)c2O)C(=O)N1` [Compound 1, 5-(3,5-dibromo-2-hydroxybenzylidene) perhydropyrimidine-2.4,6-trione], in experiment [1], the “MSSA strain MIC, ATCC 29213” value amounted to 0.7 µg/mL. Moreover, the “antimicrobial activity, comparison among the inventive substances” value (from here on “antimicrobial activity”) in [2] is recorded as “best activity”. The “VRSA strain MIC, VT-V-18” value in experiment [3] worked out at 0.7 µg/mL. Moreover, the “VRSA strain MIC, VT-E-25” value in experiment [4] was found to be 1.5 μg/ml. For the same compound, in experiment [5], the “VRSA strain MIC, VT-A-199” value turned out to be 0.07 µg/mL. Further, the “decrease of the number of CFU in biofilm” value in experiment [6] (24-hour action), in experiment [7] (24-hour action) and in [8] (24-hour action) was 10,000 times throughout.
As to `COc1ccc(CN2C(=O)NC(=O)C(=Cc3cc(Br)cc(Br)c3O)C2=O)cc1` [Compound 15, 1-(4-methoxybenzyl)-5-(3,5-dibromo-2-hydroxybenzylidene) perhydropyrimidine-2.4,6-trione], the “antimicrobial activity” value in experiment [2] was “best activity”.
Still for that read-out and setting: with `O=Cc1cc(Br)cc(Br)c1[O-].[Na+]` [Compound 17, 2-formyl-4,6-dibromo sodium phenolate] the entry was “best activity”.
With `O=Cc1cc(Br)cc([N+](=O)[O-])c1[O-].[K+]` [Compound 19, 2-formyl-4-bromo-6-nitro potassium phenolate], the “antimicrobial activity” value in experiment [2] was “best activity”.
As to `CC1(C)SC2C(NC(=O)[C@H](N)c3ccccc3)C(=O)N2C1C(=O)O` (stereo partly drawn) [ampicillin, 6-[[(2R)-aminophenylacetyl]amino]-3,3-dimethyl-7-oxo-4-thia-1-azabicyclo[3.2.0]heptane-2carboxylic acid], the MIC result in [9], in experiment [10], in experiment [11] and in experiment [12] was “no effect” in each case. In addition, the “decrease of the number of CFU in biofilm” value in experiment [6] (10 mg/l) is 10 times. Besides, the “effect on the number of CFU in biofilm” value in experiment [7] (10 mg/l) and in experiment [8] (10 mg/l) was “no effect whatsoever” each time.

The values above are taken from patent US10265318B2, “Medicinal drug with activity against gram positive bacteria, mycobacteria and fungi” (priority 2015, dated 2019).
